Results on 11 compounds are retold here after US5508277A, “Bicyclic pyrimidines” (Adir Et Compagnie, priority 1992, dated 1996).

The structures appear in SMILES notation.

Test [1] relates to P388/VCR (murine leukaemia resistant to vincristine). Nature of the test: Increase in the anti-tumour activity of vincristine in vivo, compounds administered p.o. More on the design: species or system mice (female B6D2F1). As to conditions: 100 mg/kg p.o., days 1, 2, 3 and 4; + vincristine 0.25 mg/kg i.p. An excerpt:
(§1) The sensitive parent line P388 (murine leukaemia) and the sub-line resistant to vincristine, P388/VCR, were supplied by NCI (Frederick, USA). The tumour cells (10^6 cells) were inoculated on day 0 into the intraperitoneal cavity of female B6D2F1 mice (Iffa Credo, France) weighing from 18 to 20 g (groups of 8 to 10 animals). In the case of i.p. administration of the compounds to be tested, the animals received on days 1, 5 and 9:
In the case of p.o. administration of the compounds to be tested, the animals received on days 1, 2, 3 and 4:
an administration by the oral route of 100 mg/kg of the compound of the present invention to be tested, then
30 to 60 minutes later, an administration by the i.p. route of 0.25 mg/kg of vincristine.
The anti-tumour activity is expressed as follows: [formula]
The activity of the reversing compound is expressed as T/V: [formula]

Test [2] has the same test system. Nature of the test: Increase in the anti-tumour activity of vincristine in vivo, compounds administered i.p. Details: species or system mice (female B6D2F1). The conditions noted are these: for increase in anti-tumour activity of vincristine (in words): administered i.p., resistant tumour. On the procedure:
as §1, with “9: administration by the i.p. route of 25, 50 or 75 mg/kg of the compound of the present invention to be tested, then 30 to 60 minutes later, an administration by the i.p. route of 0.50 mg/kg of vincristine (used as a reference anti-tumour agent). The anti-tumour activity is expressed as follows: [formula] The activity of the reversing compound is expressed as T/V: [formula]” for “9:”

For test [3], the system named is DC-3F/AD cells. Nature of the test: Cytotoxicity of actinomycin D, reversal of MDR (reversion factor), Microculture Tetrazolium Assay. As to conditions: compound at 5 μM, with actinomycin D, 4 days. In kind it is cell-based, Chinese hamster. On the procedure:
Two resistant cell lines were used:
The cells are distributed on microplates and exposed to the cytotoxic compound (actinomycin D or adriamycin) at 9 concentrations (2 by 2 series dilutions). The compounds tested for their capacity to reverse MDR are added at the same time as the cytotoxic agent. The cells are then incubated for 4 days. […] The results are expressed as a reversion factor (RF): [formula]

The mark [4] stands for this setting: 25 mg/kg i.p., days 1, 5 and 9, + vincristine 0.50 mg/kg i.p.
Where [5] appears, read: 50 mg/kg i.p., days 1, 5 and 9, + vincristine 0.50 mg/kg i.p.
[6] abbreviates: 75 mg/kg i.p., days 1, 5 and 9, + vincristine 0.50 mg/kg i.p.
[7] abbreviates: VCR only, 0.50 mg/kg i.p., no compound.

Take `C=CCNc1nc(N2CCC(NCC3c4ccccc4CCc4ccccc43)CC2)c2ncn(CC=C)c2n1` [Example 2, 9-allyl-2-allylamino-6-{4-[(10,11-dihydro-5H-dibenzo-[a,d]cyclohepten-5-yl)methylamino]piperidino}purine]: the T/C in test [1] is on record as 172. The T/C % in test [2] (setting [4]) is listed as 192%; in test [2] (setting [5]), 224%; in test [2] (setting [6]), 235%. Moreover, the figures for the T/V in test [2] (setting [4]), in test [2] (setting [5]) and in test [2] (setting [6]) were 1.37, 1.60 and 1.68, respectively. The “increase in anti-tumour activity of vincristine (in words)” value in test [2] is listed as “substantially increase the anti-tumour activity of vincristine against a resistant tumour”. Besides, in test [3], the “REVERSION FACTOR 5 μM DC-3F/AD” value came to 3368.

Regarding `C=CCNc1nc(N2CCC(NCC3c4ccccc4C=Cc4ccccc43)CC2)nc2c1ncn2CC=C` [Example 6, 9-allyl-6-allylamino-2-{4-[(5H-dibenzo[a,d]cyclohepten-5-yl)methylamino]piperidino}purine], the T/C in test [1] came to 188.

`CC[C@]1(O)C[C@H]2CN(CCc3c([nH]c4ccccc34)[C@@](C(=O)OC)(c3cc4c(cc3OC)N(C=O)[C@H]3[C@@](O)(C(=O)OC)[C@H](OC(C)=O)[C@]5(CC)C=CCN6CC[C@]43[C@@H]65)C2)C1` [VCR, vincristine, reference compound]: in test [2] (setting [7]), the T/C % came to 140% and the T/V was 1.

Consider `COc1ccc(CCN(C)CCCC(C#N)(c2ccc(OC)c(OC)c2)C(C)C)cc1OC` (stereo not shown) [verapamil, reference compound], for which the “REVERSION FACTOR 5 μM DC-3F/AD” value in test [3] came out at 3.

As to `C=CCNc1nc(N2CCC(NCC3c4ccccc4CCc4cc(OC)ccc43)CC2)nc2c1ncn2CC=C` (stereo not shown) [Example 14, 9-allyl-6-allylamino-2-{4-[(2-methoxy-10,11-dihydro-5H-dibenzo[a,d]cyclohepten-5-yl)methylamino]piperidino}purine], the T/C in test [1] is reported as 202.

`C=CCNc1nc(N2CCC(NCC(c3ccc(F)cc3)c3ccc(F)cc3)CC2)nc2c1ncn2CC=C` [Example 3, 9-allyl-6-allylamino-2-{4-[2,2-bis(4-fluorophenyl)-ethylamino]piperidino}purine]: the T/C in test [1] is 203.

For `C=CCNc1nc(N2CCC(NCC3c4ccccc4CCc4ccccc43)CC2)nc2c1cnn2CC=C` [Example 9, 1-allyl-4-allylamino-6-{4-[(10,11-dihydro-5H-dibenzo[a,d]cyclohepten-5-yl)methylamino]piperidino}pyrazolo[3,4-d]pyrimidine], the T/C in test [1] worked out at 161.

`C=CCNc1nc(N2CCC(NCC3c4ccccc4CCc4ccccc43)CC2)nc2c1ncn2CC=C` [Example 1, 9-allyl-6-allylamino-2-{4-[(10,11-dihydro-5H-dibenzo-[a,d]cyclohepten-5-yl)methylamino]piperidino}purine]: the T/C in test [1] worked out at 209. The T/C % in test [2] (setting [4]) was 215%; in test [2] (setting [5]), 239%; in test [2] (setting [6]) it was 176%. Moreover, the values for the T/V in test [2] (setting [4]), in test [2] (setting [5]) and in test [2] (setting [6]) were 1.54, 1.71 and 1.26, respectively. For the same compound, the “increase in anti-tumour activity of vincristine (in words)” value in test [2] is given as “substantially increase the anti-tumour activity of vincristine against a resistant tumour”. The “REVERSION FACTOR 5 μM DC-3F/AD” value in test [3] is reported as 5173.

`C=CCNc1nc(N2CCC(NC3c4ccccc4N(C)S(=O)(=O)c4cc(Cl)ccc43)CC2)nc2c1ncn2CC=C` (single isomer, unassigned) [Example 15, (+)--(R)-- or --(S)-9-allyl-6-allylamino-2-{4-[(3-chloro-6-methyl-5,5-dioxo-6,11-dihydrodibenzo[c,f][1,2]thiazepin-11-yl)amino]piperidino)purine]: in test [1], the T/C worked out at 157.

As to `C=CCNc1nc(N2CCC(NCC(c3ccccc3)c3ccccc3)CC2)nc2c1ncn2CC=C` [Example 12, 9-allyl-6-allylamino-2-{4-[(2,2-diphenylethyl)amino]piperidino}purine], in test [1], the T/C is recorded as 192.

Regarding `C=CCNc1nc(N2CCC(NCC3c4ccccc4COc4ccccc43)CC2)nc2c1ncn2CC=C` (stereo not shown) [Example 5, 9-allyl-6-allylamino-2-{4-[(6,11-dihydrodibenzo[b,e]-oxepin-11-yl)methylamino]piperidino}purine], in test [1], the T/C is reported as 196.
